Usually IC50 stands for the midpoint of a concentration-inhibition curve.

In the first assay the target is recombinant SARS-CoV-2 M^pro (Severe acute respiratory syndrome coronavirus 2 (2019-nCoV) (SARS-CoV-2), UniProt P0DTD1). The assay can be described thus: Inhibition of SARS-CoV-2 M^pro enzyme activity (fluorescent substrate assay). Format: biochemical. The conditions noted are these: IC50, inhibition of SARS-CoV-2 M^pro enzyme activity; values in nM.
For `C[C@@H](NC(=O)C(C)(C)Oc1ccc([Si](C)(C)C)cc1Cl)C(=O)N[C@H](Cc1ccccc1)C(=O)C(=O)NCc1ccccn1` [Compound 81], the IC50 amounted to 27.9 ± 5.5 nM.

The assay is the same for the next values; noted with them: inhibition of SARS-CoV-2 M^pro enzyme activity; values in nM; read-out: IC50.
In the case of `C[C@@H](NC(=O)Cc1ccc(F)cc1)C(=O)N[C@H](Cc1ccccc1)C(=O)C(=O)NCc1ccccn1` [Compound 75], the IC50 turned out to be 19.3 ± 0.7 nM.
Turning to `C[C@@H](NC(=O)Cc1ccc(Cl)cc1)C(=O)N[C@H](Cc1ccccc1)C(=O)C(=O)NCc1ccccn1` [Compound 76], the IC50 amounted to 23 ± 1.1 nM.
For the molecule `COc1ccc(CC(=O)N[C@H](C)C(=O)N[C@H](Cc2ccccc2)C(=O)C(=O)NCc2ccccn2)cc1` [Compound 77], the IC50 stood at 24.1 nM.
With `C[C@@H](NC(=O)Cc1ccc(C(F)(F)F)cc1)C(=O)N[C@H](Cc1ccccc1)C(=O)C(=O)NCc1ccccn1` [Compound 78], the IC50 turned out to be 53.2 ± 0.5 nM.
On to `C[C@@H](NC(=O)Cc1cc(F)cc(F)c1)C(=O)N[C@H](Cc1ccccc1)C(=O)C(=O)NCc1ccccn1` [Compound 79], for which the IC50 was 10.9 ± 0.1 nM.
The same measure, in the same setting: in the case of `C[C@@H](NC(=O)COC(F)(F)F)C(=O)N[C@H](Cc1ccccc1)C(=O)C(=O)NCc1ccccn1` [Compound 80] it was 58.6 ± 3.2 nM; in that of `C[C@@H](NC(=O)C(C)(C)Oc1ccc(Cl)cc1F)C(=O)N[C@H](Cc1ccccc1)C(=O)C(=O)NCc1ccccn1` [Compound 82], 5.8 ± 0.1 nM; in that of `CC(C)C(Oc1ccc(Cl)cc1)C(=O)N[C@H](C)C(=O)N[C@H](Cc1ccccc1)C(=O)C(=O)NCc1ccccn1` (stereo partly shown) [Compound 83], 6.7 ± 0.1 nM.
For the molecule `C[C@@H](NC(=O)COc1ccc(Cl)cc1)C(=O)N[C@H](Cc1ccccc1)C(=O)C(=O)NCc1ccccn1` [Compound 84], the 50% inhibitory concentration (IC50) was 40 ± 2.4 nM.
On the same count and under the same terms, then `C[C@@H](NC(=O)C1CCc2cc(F)ccc2O1)C(=O)N[C@H](Cc1ccccc1)C(=O)C(=O)NCc1ccccn1` (stereo partly shown) [Compound 85], with 56.7 ± 2.7 nM; and `C[C@@H](NC(=O)COc1ccc(Cl)cc1F)C(=O)N[C@H](Cc1ccccc1)C(=O)C(=O)NCc1ccccn1` [Compound 86], with 70.5 ± 2.5 nM.
In the case of `COc1ccc(OC(C)C(=O)N[C@H](C)C(=O)N[C@H](Cc2ccccc2)C(=O)C(=O)NCc2ccccn2)cc1` (stereo partly shown) [Compound 87], the IC50 came out at 42.1 ± 1 nM.
On to `CC(Oc1ccc(Cl)cc1Cl)C(=O)N[C@H](C)C(=O)N[C@H](Cc1ccccc1)C(=O)C(=O)NCc1ccccn1` (stereo partly shown) [Compound 88], for which the IC50 came to 24.4 nM.
Consider `COc1ccccc1OCC(=O)N[C@H](C)C(=O)N[C@H](Cc1ccccc1)C(=O)C(=O)NCc1ccccn1` [Compound 89], for which the IC50 came to 40.9 ± 1.2 nM.
On the same count and under the same terms, then `C[C@@H](NC(=O)COc1ccc2ccccc2c1)C(=O)N[C@H](Cc1ccccc1)C(=O)C(=O)NCc1ccccn1` [Compound 91], with 48.4 ± 2 nM; and `COc1ccc(OCC(=O)N[C@H](C)C(=O)N[C@H](Cc2ccccc2)C(=O)C(=O)NCc2ccccn2)cc1` [Compound 92], with 26.6 ± 0.4 nM.
For the molecule `C[C@@H](NC(=O)COc1cccc(F)c1)C(=O)N[C@H](Cc1ccccc1)C(=O)C(=O)NCc1ccccn1` [Compound 93], the IC50 came out at 28.8 ± 1 nM.
Turning to `C[C@@H](NC(=O)C(F)Oc1ccc(Cl)cc1Cl)C(=O)N[C@H](Cc1ccccc1)C(=O)C(=O)NCc1ccccn1` (stereo partly shown) [Compound 94], the IC50 stood at 13.5 ± 1.3 nM.
Still for that read-out and setting: in the case of `C[C@@H](NC(=O)C(C)(C)Sc1ccc(Cl)cc1Cl)C(=O)N[C@H](Cc1ccccc1)C(=O)C(=O)NCc1ccccn1` [Compound 95] it was 8.2 ± 1.1 nM; in that of `CC(Oc1ccc(C(F)(F)F)cc1)C(=O)N[C@H](C)C(=O)N[C@H](Cc1ccccc1)C(=O)C(=O)NCc1ccccn1` (stereo partly shown) [Compound 96], 20.2 ± 0.7 nM.
Consider `CC(Oc1ccc(C2CC2(Cl)Cl)cc1)C(=O)N[C@H](C)C(=O)N[C@H](Cc1ccccc1)C(=O)C(=O)NCc1ccccn1` (stereo partly shown) [Compound 97], for which the IC50 was 37.2 ± 4.8 nM.
Consider `C[C@@H](NC(=O)c1ccc(Cl)c(F)c1)C(=O)N[C@H](Cc1ccccc1)C(=O)C(=O)NCc1ccccn1` [Compound 98], for which the IC50 is 40.7 ± 1.9 nM.
Take `C[C@@H](NC(=O)c1ccc(Cl)c(Cl)c1)C(=O)N[C@H](Cc1ccccc1)C(=O)C(=O)NCc1ccccn1` [Compound 99]: the 50% inhibitory concentration (IC50) is 27.8 ± 1.1 nM.
For the molecule `C[C@@H](NC(=O)c1ccc(Cl)cc1F)C(=O)N[C@H](Cc1ccccc1)C(=O)C(=O)NCc1ccccn1` [Compound 100], the IC50 amounted to 13 ± 1.4 nM.
Still for that read-out and setting: then `C[C@@H](NC(=O)c1cc(F)cc(Cl)c1)C(=O)N[C@H](Cc1ccccc1)C(=O)C(=O)NCc1ccccn1` [Compound 101], with 21.6 ± 0.8 nM; and `C[C@@H](NC(=O)C1Cc2ccccc2O1)C(=O)N[C@H](Cc1ccccc1)C(=O)C(=O)NCc1ccccn1` (stereo partly shown) [Compound 102], with 26.6 ± 0.4 nM.
Consider `C[C@@H](NC(=O)c1ccc(F)c(S(C)(=O)=O)c1)C(=O)N[C@H](Cc1ccccc1)C(=O)C(=O)NCc1ccccn1` [Compound 103], for which the IC50 was determined as 28.8 ± 1 nM.
With `C[C@@H](NC(=O)C1CC1c1ccccc1)C(=O)N[C@H](Cc1ccccc1)C(=O)C(=O)NCc1ccccn1` (stereo partly shown) [Compound 104], the IC50 was determined as 16.8 ± 1.1 nM.
Turning to `C[C@@H](NC(=O)c1cc(F)cc(C#N)c1)C(=O)N[C@H](Cc1ccccc1)C(=O)C(=O)NCc1ccccn1` [Compound 105], the IC50 amounted to 25.3 ± 1.7 nM.
Regarding `C[C@@H](NC(=O)c1cnccn1)C(=O)N[C@H](Cc1ccccc1)C(=O)C(=O)NCc1ccccn1` [Compound 106], the 50% inhibitory concentration (IC50) came out at 161 ± 4.1 nM.
Same read-out and setting: in the case of `C[C@@H](NC(=O)C1(O)CCCCC1)C(=O)N[C@H](Cc1ccccc1)C(=O)C(=O)NCc1ccccn1` [Compound 107] it was 52 ± 0.2 nM.
With `C[C@@H](NC(=O)c1ccnc(F)c1)C(=O)N[C@H](Cc1ccccc1)C(=O)C(=O)NCc1ccccn1` [Compound 108], the 50% inhibitory concentration (IC50) was 66.4 ± 1.2 nM.
As to `C[C@@H](NC(=O)/C=C/c1ccc(F)cc1)C(=O)N[C@H](Cc1ccccc1)C(=O)C(=O)NCc1ccccn1` [Compound 109], the IC50 was found to be 168.9 ± 0.1 nM.
The same measure, in the same setting: in the case of `C[C@@H](NC(=O)C1CCC(C(F)(F)F)CC1)C(=O)N[C@H](Cc1ccccc1)C(=O)C(=O)NCc1ccccn1` (stereo partly shown) [Compound 110] it was 31.3 ± 0.1 nM; in that of `C[C@@H](NC(=O)CC1CCC(F)(F)CC1)C(=O)N[C@H](Cc1ccccc1)C(=O)C(=O)NCc1ccccn1` [Compound 111], 25.3 ± 0.2 nM.
With `C[C@@H](NC(=O)COc1cccnc1)C(=O)N[C@H](Cc1ccccc1)C(=O)C(=O)NCc1ccccn1` [Compound 112], the IC50 stood at 112.6 ± 0.5 nM.
Consider `C[C@@H](NC(=O)[C@@H](NC(=O)NC1(CS(=O)(=O)C(C)(C)C)CCCCC1)C(C)(C)C)C(=O)N[C@H](Cc1ccccc1)C(=O)C(=O)NCc1ccccn1` [Compound 113], for which the IC50 is 69.1 ± 8.1 nM.
Still for that read-out and setting: in the case of `C[C@@H](NC(=O)COC1CCCCC1)C(=O)N[C@H](Cc1ccccc1)C(=O)C(=O)NCc1ccccn1` [Compound 114] it was 34.9 ± 1 nM.
Regarding `C[C@@H](NC(=O)COc1cccc(C#N)c1)C(=O)N[C@H](Cc1ccccc1)C(=O)C(=O)NCc1ccccn1` [Compound 115], the IC50 was found to be 37.8 ± 3 nM.
Still for that read-out and setting: in the case of `C[C@@H](NC(=O)C1CCS(=O)(=O)CC1)C(=O)N[C@H](Cc1ccccc1)C(=O)C(=O)NCc1ccccn1` [Compound 116] it was 130.1 ± 0.4 nM; in that of `C[C@@H](NC(=O)[C@H]1CC[C@H](C#N)CC1)C(=O)N[C@H](Cc1ccccc1)C(=O)C(=O)NCc1ccccn1` [Compound 117], 46.1 ± 0.3 nM; in that of `C[C@@H](NC(=O)C1C2CCCC2CN1C(=O)OC(C)(C)C)C(=O)N[C@H](Cc1ccccc1)C(=O)C(=O)NCc1ccccn1` (stereo partly shown) [Compound 118], 40.2 ± 3.4 nM.

The values are drawn from patent US20250064789A1, “KETOAMIDE DERIVATIVES AND PHARMACEUTICAL USES THEREOF” (priority 2022, published 2025).
